Source: patent US7407948B2, “Photosensitisers and their uses” (priority 2007, dated 2008)
Like-named read-outs stand apart in the source and are kept apart here.

Experiments:
[1] = system: C. albicans; assay: Photoinactivation of yeast by phenoselenazinium derivatives (C. albicans); assay type: cell-based; details: 10 μM photosensitiser, 30 min 37° C., 665 nm laser, 3 J/cm^2 (10 mW/cm^2)
Procedure: (§1) 1 mM stock solutions of the photosensitisers were made up by solubilising the photosensitiser in dimethyl sulfoxide.
(§2) Bacteria (E. coli, S. aureus) and yeast (C. albicans) cells were grown at 37° C. until the cells reached the logarithmic growth phase. Bacterial cells were grown in nutrient media, yeast cells were grown in Sabouraud media (obtainable via Millipore Limited, Watford, England).
(§3) Following the incubation, the log phase cells were washed twice in 0.1 M pH7.0 potassium phosphate buffer. The cells were then resuspended in buffer to give 3.5×10^8 CFU/ml for E. coli and S. aureus, or 1.0×10^7 CFU/ml for C. albicans.
(§4) The cells were incubated for 30 min at 37° C. with 10 μM photosensitiser. Following the incubation 2 mL of the cell suspension was removed into a 30 mm sterile Petri dish. The cell containing dish was then illuminated with a 665 nm Ceramoptec diode laser (trade mark of Ceramoptec GmBH, Germany and obtainable from Biolitec, Germany), at a light dose of 3 J/cm^2 (10 mW/cm^2).
(§5) Cells of the illuminated and non illuminated cultures were serially diluted and plated on either: nutrient agar (E. coli and S. aureus) or sabouraud agar (C. albicans). The plates were incubated for 24 h (E. coli and C. albicans) or 48 h (S. aureus). The colonies on the plates were counted as a measure of cell survival.

[2] = system: E. coli; assay: Photoinactivation of bacteria by phenoselenazinium derivatives (E. coli); assay type: cell-based; details: 10 μM photosensitiser, 30 min 37° C., 665 nm laser, 3 J/cm^2 (10 mW/cm^2)
Procedure: as §1, §2, §3, §4, §5

[3] = system: S. aureus; assay: Photoinactivation of bacteria by phenoselenazinium derivatives (S. aureus); assay type: cell-based; details: 10 μM photosensitiser, 30 min 37° C., 665 nm laser, 3 J/cm^2 (10 mW/cm^2)
Procedure: as §1, §2, §3, §4, §5

[4] = system: subcutaneous CaNT tumours; assay: Anti-tumour efficacy in vivo (PDT, tumour necrosis); design: species or system CBA/gy mice; details: 60 J/cm^2 660±15 nm, 72 h after illumination
Procedure: (§6) Tumour destruction was assessed in CBA/gy mice bearing subcutaneous CaNT tumours. The photosensitiser was administered intravenously at doses up to 16.7 μmol/kg. At various times after photosensitiser administration, the tumour was illuminated superficially with 60 J/cm^2, 50 mW/cm^2 light from a Paterson lamp using a 660±15 nm filter. Drug-light intervals ranged from 0 h (in practice, 1-2 minutes) up to 96 h. 72 h after illumination a cross sectional slice was removed from the centre of the tumour parallel to the incident light, an image of this was captured and the macroscopic necrotic area quantified using image analysis software. Necrosis was expressed as % area of the total tumour slice. % tumour necrosis in control tumours was generally <10%.
(§7) The phenoselenazinium compounds were dissolved and administered in a composition comprising 25% Solutol, 10% ethanol, 65% saline vehicle.

[5] = Partition coefficient log P; assay type: physicochemical; details: 2-octanol/0.1 M aqueous potassium phosphate at pH 7
From the text: Partition coefficient (2-octanol/0.1 M aqueous potassium phosphate at pH 7): log P=>2.

[6] = Singlet oxygen yield relative to Methylene Blue; assay type: physicochemical; details: in methanol, relative to MB
[7] = system: normal tissues surrounding the tumour (usually kidney); assay type: in vivo; details: arbitrary score 0-3, i.v. dose 1.67 μmol/Kg
Procedure: as §6
An arbitrary score 0-3 of the severity of damage to normal tissues surrounding the tumour (usually kidney) was also recorded. 0=no detectable damage; 1=minimal damage to one organ; 2=damage to more than one organ; 3=death
as §7

[8] = i.v. dose 1.67 μmol/Kg, drug to light interval 0 h
[9] = i.v. dose 1.67 μmol/Kg, drug to light interval 1 h
[10] = i.v. dose 8.4 μmol/Kg, drug to light interval 1 h

Compound | Log change in CFU/mL [1] | Log change in CFU/mL [2] | Log change in CFU/mL [3] | % tumour necrosis ([4]; i.v. dose 0.84 μmol/Kg, drug to light interval 0 h) [%] | % tumour necrosis ([4]; i.v. dose 0.84 μmol/Kg, drug to light interval 1 h) [%] | % tumour necrosis [4, 8] [%] | % tumour necrosis [4, 9] [%] | logP [5] | Singlet oxygen yield (relative to Methylene Blue) [6] | % tumour necrosis ([4]; i.v. dose 8.4 μmol/Kg, drug to light interval 0 h) [%] | % tumour necrosis [4, 10] [%] | % tumour necrosis ([4]; i.v. dose 16.7 μmol/Kg, drug to light interval 0 h) [%] | % tumour necrosis ([4]; i.v. dose 4.18 μmol/Kg, drug to light interval 0 h) [%] | % tumour necrosis ([4]; i.v. dose 6.26 μmol/Kg, drug to light interval 0 h) [%] | % tumour necrosis ([4]; i.v. dose 8.34 μmol/Kg, drug to light interval 0 h) [%] | Normal tissue damage ([7]; drug to light interval 0 h) | Normal tissue damage ([7]; drug to light interval 1 h)
CCCCN(CCCC)c1ccc2nc3ccc(N(CCCC)CCCC)cc3[se+]c2c1 [Compound 1, 3,7-Bis-(N,N-dibutylamino)phenoselenazin-5-ylium bromide] | 0.00 (0.05) log CFU/mL | 5.48 (0.34) log CFU/mL | 0.21 (0.01) log CFU/mL | 93 | 40 | 88 | 88 | > 2 | 0.9 | – | – | – | – | – | – | – | –
CCCN(CCC)c1ccc2nc3ccc(N(CCC)CCC)cc3[se+]c2c1 [Compound 2, 3,7-Bis-(N,N-dipropylamino)phenoselenazin-5-ylium iodide] | 0.35 (0.42) log CFU/mL | 3.16 (0.03) log CFU/mL | 1.70 (0.48) log CFU/mL | – | – | 55 | – | > 2 | 1.1 | 87 | 17 | 100 | – | – | – | – | –
CCN(CC)c1ccc2nc3ccc(N(CC)CC)cc3[se+]c2c1 [Compound 3, 3,7-Bis-(N,N-diethylamino)phenoselenazin-5-ylium iodide] | 0.16 (0.22) log CFU/mL | 3.78 (0.28) log CFU/mL | 2.72 (0.87) log CFU/mL | – | – | 0 | 0 | 1.5 | 1.5 | – | – | – | – | – | – | – | –
CCCCCN(CCCCC)c1ccc2nc3ccc(N(CCCCC)CCCCC)cc3[se+]c2c1 [Compound 4, 3,7-Bis-(N,N-dipentylamino)phenoselenazin-5-ylium iodide] | 0.17 (0.02) log CFU/mL | 3.66 (2.23) log CFU/mL | 0.95 (0.73) log CFU/mL | – | – | 10 | – | > 2 | 1.4 | – | – | – | 45 | 80 | 80 | – | –
CCCCCCN(CCCCCC)c1ccc2nc3ccc(N(CCCCCC)CCCCCC)cc3[se+]c2c1 [Compound 5, 3,7-Bis-(N,N-dihexylamino)phenoselenazin-5-ylium iodide] | −0.03 (0.03) log CFU/mL | 0.02 (0.13) log CFU/mL | 0.18 (0.12) log CFU/mL | – | – | 0 | – | > 2 | 1.1 | – | 30 | – | – | – | – | – | –
CCCCN(CCCC)c1ccc2nc3ccc(N(CCC)CCC)cc3[se+]c2c1 [Compound 6, 3-N,N-dibutylamino-7-N,N-dipropylamino-phenoselenazin-5-ylium iodide] | 6.12 (0.82) log CFU/mL | 6.54 (0.00) log CFU/mL | 2.66 (2.26) log CFU/mL | – | – | 75 | 15 | > 2 | 1.1 | – | – | – | – | – | – | – | –
CN(C)c1ccc2nc3ccc(N(C)C)cc3[se+]c2c1.[I-] [Compound A, 3,7-N,N-dimethylamino-phenoselenazin-5-ylium iodide, reference compound] | 0.19 (0.06) log CFU/mL | 3.33 (0.01) log CFU/mL | 1.74 (0.41) log CFU/mL | – | – | 0 | 0 | – | – | – | – | – | – | – | – | 0 | 0
